Measurements: ChEMBL document CHEMBL5053522, “Synthesis of 3-octadecanoxypropyl 6-deoxy-6-sulfo-α-d-glucopyranoside (ODSG) as a lipase-resistant SQAP derivative” (2021)

Tested on: A549
Assay: Cytotoxicity against human A549 cells assessed as survival rate upto 170 uM by CCK8 assay relative to control
Assay type: functional
Details: up to 170 µM

SMILES	Activity [%]
CCCCCCCCCCCCCCCCCCOCCCO[C@H]1O[C@H](CS(=O)(=O)[O-])[C@@H](O)[C@H](O)[C@H]1O.[Na+]	>70
CCCCCCCCCCCCCCCCCC(=O)OCCCO[C@H]1O[C@H](CS(=O)(=O)[O-])[C@@H](O)[C@H](O)[C@H]1O.[Na+]	70
